The numbers were not newly measured in patent publication US9884129B2, “Release of agents from cells” (The Brigham and Women s Hospital, Inc., priority 2009, dated 2018), which cites them from elsewhere.

The subject of the series is tumor. To be noted: with neural stem cells modified to produce cytosine deaminase; systemic prodrug.

Regarding `Nc1nc(=O)[nH]cc1F` [5-fluorocytosine], the “reduction in tumor mass” value is 80%.
